The values below come from patent publication US8759340B2, “Benzodiazepinone compounds useful in the treatment of skin conditions” (The Regents of the University of Michigan, priority 2007, dated 2014).

The structures appear in SMILES notation.

In assay [1] the test system is human foreskin fibroblasts (HFF). The assay can be described thus: Fibroblast proliferation assay. The class given is cell-based. Particulars: HFF, day 2; for inhibition at 1 µM / inhibition at 0.05 µM / inhibition at 0.1 µM / inhibition at 0.5 µM / inhibition at 5 µM / inhibition at 10 µM: Homo sapiens, 48 h, read-out: Percent Inhibition of Cells Per Concentration of Test Compound; for inhibition at 0.05 µM / inhibition at 0.1 µM / inhibition at 0.5 µM / inhibition at 5 µM / inhibition at 10 µM: Fibroblast. The method, then:
Fibroblasts obtained from the same tissue were grown in monolayer culture using Dulbecco's modified minimal essential medium supplemented with nonessential amino acids and 10% fetal bovine serum (DMEM-FBS) as culture medium. Both keratinocytes and fibroblasts were maintained at 37° C. in an atmosphere of 95% air and 5% CO2. Cells were subcultured by exposure to trypsin/ethylenediamine tetraacetic acid (EDTA) and used at passage 2-4.
(§1) Keratinocyte proliferation was assessed by seeding 4×10^4 cells per well in a 24-well plate using KGM as culture medium. After the cells had attached (overnight), they were washed and triplicate samples were harvested for zero-time counts. DMSO served as a negative control. Proliferation was measured on day 2 by releasing the cells with trypsin/EDTA and enumerating them using a particle counter (Coulter Electronics, Hialeah, Fla.). Fibroblast proliferation studies were conducted in a similar manner except that […] was used as culture medium.
(§2) KC refers to human keratinocytes. HFF refers to human foreskin fibroblasts. The cLogP values were calculated using ChemDraw™ (CambridgeSoft).

Assay [2] concerns human keratinocytes (KC). The experiment in a line: Keratinocyte proliferation assay. It is filed as cell-based. Particulars: KC, day 2; for inhibition at 0.05 µM / inhibition at 0.1 µM / inhibition at 0.5 µM / inhibition at 1 µM / inhibition at 5 µM / inhibition at 10 µM: Homo sapiens, Keratinocyte, 48 h, read-out: Percent Inhibition of Cells Per Concentration of Test Compound. The method, then:
Epidermal keratinocytes were isolated from fresh tissue biopsies as described previously (Varani et al., (1994) J. Clin. Invest. 94:1747-1753). Primary and early passage cells were maintained in Keratinocyte Growth Medium (KGM) (Lonza). KGM contains the same basal medium as KBM but is further supplemented with a mixture of growth factors including 0.1 ng per mL EGF, 0.5 μg per mL insulin, and 0.4% bovine pituitary extract. In addition to using low-passage keratinocytes, we also used the HaCat line of immortalized human epidermal keratinocytes in some experiments. The immortalized keratinocytes were handled exactly as low-passage keratinocytes.
as §1, §2

For `Cc1cc(C)cc(CC2N=C(c3ccc(O)cc3)c3cc(Cl)ccc3N(C)C2=O)c1` (stereo not drawn) [Compound 2, (Z)-3-(3,5-Dimethylbenzyl)-7-chloro-5-(4-hydroxyphenyl)-1-methyl-1H-benzo[e][1,4]diazepin-2(3H)-one], the values for the inhibition at 1 µM in assay [1] (1 μM) and in assay [2] (1 μM) were < 20% and ≥ 20%, respectively. In addition, the inhibition at 0.05 µM in assay [1] (0.05 μM) and in assay [2] (0.05 μM) was < 20% each time. Further, the inhibition at 0.1 µM in assay [1] (0.1 μM) and in assay [2] (0.1 μM) was < 20% throughout. In addition, the figures for the inhibition at 0.5 µM in assay [1] (0.5 μM) and in assay [2] (0.5 μM) were < 20% and ≥ 20%, respectively. The inhibition at 5 µM in assay [1] (5 μM) and in assay [2] (5 μM) was ≥ 90% each time. For the same compound, the inhibition at 10 µM in assay [1] (10 μM) and in assay [2] (10 μM) was ≥ 90% throughout.

`CC(C)c1ccc(C(C)C)c(CC2N=C(c3ccc(O)cc3)c3cc(Cl)ccc3N(C)C2=O)c1` (stereo not drawn) [Compound 10, (Z)-3-(2,5-Diisopropylbenzyl)-7-chloro-5-(4-hydroxyphenyl)-1-methyl-1H-benzo[e][1,4]diazepin-2(3H)-one]: the figures for the inhibition at 1 µM in assay [1] (1 μM) and in assay [2] (1 μM) were < 20% and ≥ 20%, respectively. Further, the inhibition at 0.05 µM in assay [1] (0.05 μM) and in assay [2] (0.05 μM) was < 20% in each case. Moreover, the inhibition at 0.1 µM in assay [1] (0.1 μM) and in assay [2] (0.1 μM) was < 20% each time. Besides, the inhibition at 0.5 µM in assay [1] (0.5 μM) and in assay [2] (0.5 μM) was < 20% in each case. In addition, the inhibition at 5 µM in assay [1] (5 μM) and in assay [2] (5 μM) was ≥ 90% throughout. Besides, the inhibition at 10 µM in assay [1] (10 μM) and in assay [2] (10 μM) was ≥ 90% throughout.

Take `CC(C)c1ccc(CC2N=C(c3ccc(O)cc3)c3cc(Cl)ccc3NC2=O)cc1` (stereo not drawn) [Compound 7, (Z)-3-(4-Isopropylbenzyl)-7-chloro-5-(4-hydroxyphenyl)-1H-benzo[e][1,4]diazepin-2(3H)-one]: the inhibition at 1 µM in assay [1] (1 μM) and in assay [2] (1 μM) was ≥ 20% in each case. The inhibition at 0.05 µM in assay [1] (0.05 μM) and in assay [2] (0.05 μM) was < 20% in each case. For the same compound, the inhibition at 0.1 µM in assay [1] (0.1 μM) and in assay [2] (0.1 μM) was < 20% each time. Moreover, the inhibition at 0.5 µM in assay [1] (0.5 μM) and in assay [2] (0.5 μM) was < 20% throughout. The inhibition at 5 µM in assay [1] (5 μM) and in assay [2] (5 μM) was ≥ 90% in each case. The inhibition at 10 µM in assay [1] (10 μM) and in assay [2] (10 μM) was ≥ 90% each time.

As to `CCc1ccc(CC2N=C(c3ccc(O)cc3)c3cc(Cl)ccc3N(C)C2=O)cc1CC` (stereo not drawn) [Compound 4, (Z)-3-(3,4-Diethylbenzyl)-7-chloro-5-(4-hydroxyphenyl)-1-methyl-11H-benzo[e][1,4]diazepin-2(3H)-one], the “Percent Inhibition of Cells Per Concentration of Test Compound” value in assay [1] (0.05 μM) is <20%; in assay [1] (0.1 μM), <20%; in assay [1] (0.5 μM), <20%; in assay [1] (1 μM) it was <20%; in assay [1] (5 μM) it was “≧90%”; in assay [1] (10 μM) it was “≧90%”. For the same compound, the “Percent Inhibition of Cells Per Concentration of Test Compound” value in assay [2] (0.05 μM) is on record as <20%; in assay [2] (0.1 μM) it was <20%; in assay [2] (0.5 μM), <20%; in assay [2] (1 μM) it was “≧20%”; in assay [2] (5 μM) it was “≧90%”; in assay [2] (10 μM), “≧90%”.

In the case of `CC(C)c1ccc(C(C)C)c(CC2N=C(c3ccc(O)cc3)c3cc(Cl)ccc3NC2=O)c1` (stereo not drawn) [Compound 9, (Z)-3-(2,5-Diisopropylbenzyl)-7-chloro-5-(4-hydroxyphenyl)-1H-benzo[e][1,4]diazepin-2(3H)-one], the figures for the inhibition at 1 µM in assay [1] (1 μM) and in assay [2] (1 μM) were < 20% and ≥ 20%, respectively. The inhibition at 0.05 µM in assay [1] (0.05 μM) and in assay [2] (0.05 μM) was < 20% throughout. Besides, the inhibition at 0.1 µM in assay [1] (0.1 μM) and in assay [2] (0.1 μM) was < 20% throughout. The figures for the inhibition at 0.5 µM in assay [1] (0.5 μM) and in assay [2] (0.5 μM) were < 20% and ≥ 20%, respectively. In addition, the inhibition at 5 µM in assay [1] (5 μM) and in assay [2] (5 μM) was ≥ 90% in each case. In addition, the inhibition at 10 µM in assay [1] (10 μM) and in assay [2] (10 μM) was ≥ 90% in each case.

For the compound `CC(C)c1ccc(CC2N=C(c3ccc(O)cc3)c3cc(Cl)ccc3N(C)C2=O)cc1` (stereo not drawn) [Compound 8, (Z)-3-(4-Isopropylbenzyl)-7-chloro-5-(4-hydroxyphenyl)-1-methyl-1H-benzo[e][1,4]diazepin-2(3H)-one], the inhibition at 1 µM in assay [1] (1 μM) is < 20%; in assay [2] (1 μM) it was ≥ 20%. The inhibition at 0.05 µM in assay [1] (0.05 μM) and in assay [2] (0.05 μM) was < 20% in each case. The inhibition at 0.1 µM in assay [1] (0.1 μM) and in assay [2] (0.1 μM) was < 20% in each case. Besides, the inhibition at 0.5 µM in assay [1] (0.5 μM) is < 20%; in assay [2] (0.5 μM), ≥ 20%. Moreover, the inhibition at 5 µM in assay [1] (5 μM) and in assay [2] (5 μM) was ≥ 90% each time. Besides, the inhibition at 10 µM in assay [1] (10 μM) and in assay [2] (10 μM) was ≥ 90% throughout.

Take `CCc1cc(CC)cc(CC2N=C(c3ccc(O)cc3)c3cc(Cl)ccc3N(C)C2=O)c1` (stereo not drawn) [Compound 6, (Z)-3-(3,5-Diethylbenzyl)-7-chloro-5-(4-hydroxyphenyl)-1-methyl-1H-benzo[e][1,4]diazepin-2(3H)-one]: the inhibition at 1 µM in assay [1] (1 μM) and in assay [2] (1 μM) was < 20% throughout. For the same compound, the inhibition at 0.05 µM in assay [1] (0.05 μM) and in assay [2] (0.05 μM) was < 20% in each case. Further, the inhibition at 0.1 µM in assay [1] (0.1 μM) and in assay [2] (0.1 μM) was < 20% throughout. The inhibition at 0.5 µM in assay [1] (0.5 μM) and in assay [2] (0.5 μM) was < 20% each time. Further, the inhibition at 5 µM in assay [1] (5 μM) and in assay [2] (5 μM) was ≥ 90% each time. The inhibition at 10 µM in assay [1] (10 μM) and in assay [2] (10 μM) was ≥ 90% throughout.

For the compound `CCc1cc(CC)cc(CC2N=C(c3ccc(O)cc3)c3cc(Cl)ccc3NC2=O)c1` (stereo not drawn) [Compound 5, (Z)-3-(3,5-Diethylbenzyl)-7-chloro-5-(4-hydroxyphenyl)-1H-benzo[e][1,4]diazepin-2(3H)-one], the inhibition at 1 µM is < 20% in assay [1] (1 μM) and ≥ 20% in assay [2] (1 μM). For the same compound, the inhibition at 0.05 µM in assay [1] (0.05 μM) and in assay [2] (0.05 μM) was < 20% throughout. The inhibition at 0.1 µM in assay [1] (0.1 μM) and in assay [2] (0.1 μM) was < 20% in each case. For the same compound, the inhibition at 0.5 µM in assay [1] (0.5 μM) is < 20%; in assay [2] (0.5 μM), ≥ 20%. Moreover, the inhibition at 5 µM in assay [1] (5 μM) and in assay [2] (5 μM) was ≥ 90% each time. The inhibition at 10 µM in assay [1] (10 μM) and in assay [2] (10 μM) was ≥ 90% throughout.

Consider `CCc1cccc(CC)c1CC1N=C(c2ccc(O)cc2)c2cc(Cl)ccc2NC1=O` (stereo not drawn) [Compound 3, (Z)-3-(2,6-Diethylbenzyl)-7-chloro-5-(4-hydroxyphenyl)-1H-benzo[e][1,4]diazepin-2(3H)-one], for which the inhibition at 1 µM in assay [1] (1 μM) is < 20%; in assay [2] (1 μM), ≥ 20%. Besides, the inhibition at 0.05 µM in assay [1] (0.05 μM) and in assay [2] (0.05 μM) was < 20% each time. For the same compound, the inhibition at 0.1 µM in assay [1] (0.1 μM) and in assay [2] (0.1 μM) was < 20% each time. Besides, the inhibition at 0.5 µM in assay [1] (0.5 μM) and in assay [2] (0.5 μM) was < 20% in each case. For the same compound, the inhibition at 5 µM in assay [1] (5 μM) and in assay [2] (5 μM) was ≥ 90% each time. For the same compound, the inhibition at 10 µM in assay [1] (10 μM) and in assay [2] (10 μM) was ≥ 90% in each case.
